# Reference: PubChem BioAssay AID330 (DTP/NCI, 2004)
# Values joined by “and” are separate entries in the source; they are usually repeats but may differ in a detail not shown here. Equal values may be shown once. Toxic doses and inconclusive results are not listed.
# System: P388 leukemia ip, CD2F1 mice, survival T/C
# Test: NCI In Vivo Anticancer Drug Screen. Data for tumor model P388 Leukemia (intraperitoneal) in CD2F1 (CDF1) mice
# Conditions: endpoint: median survival time, higher = longer survival
# Procedure, shortened: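 Mice carrying the transplanted tumor received test compound or vehicle. Survival was recorded in each group, and the value is the treated-group measurement divided by that of the vehicle-treated control group.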
# [1] = dose: 50.0 mg/kg/injection, schedule: Q01DX005 (ip), vehicle: Klucel (hydroxypropylcellulose) (HPC)
structure (smiles),measurement,setting,value
COc1cc(NS(C)(=O)=O)ccc1Nc1c2ccccc2nc2ccccc12,T/C,"dose: 0.25 mg/kg/injection, schedule: Q01DX009 (ip), vehicle: other",119 % of control
same,T/C,"dose: 0.52 mg/kg/injection, schedule: Q01DX009 (ip), vehicle: other",151 % of control
same,T/C,"dose: 0.86 mg/kg/injection, schedule: Q01DX009 (ip), vehicle: other",163 % of control
same,T/C,"dose: 1.0 mg/kg/injection, schedule: Q01DX005 (iv), vehicle: other",120 % of control
same,T/C,"dose: 1.0 mg/kg/injection, schedule: Q01DX009 (ip), vehicle: other",157 % of control
same,T/C,"dose: 1.0 mg/kg/injection, schedule: Q04DX003 (ip), vehicle: other",118 % of control
same,T/C,"dose: 1.44 mg/kg/injection, schedule: Q01DX009 (ip), vehicle: other",173 % of control
same,T/C,"dose: 1.5 mg/kg/injection, schedule: Q04DX003 (ip), vehicle: clinical formulation",152 % of control
same,T/C,"dose: 2.0 mg/kg/injection, schedule: Q01DX005 (ip), vehicle: other",153 % of control and 163 % of control
same,T/C,"dose: 2.0 mg/kg/injection, schedule: Q01DX005 (oral), vehicle: other",111 % of control
same,T/C,"dose: 2.0 mg/kg/injection, schedule: Q01DX009 (ip), vehicle: other",175 % of control and 195 % of control
same,T/C,"dose: 2.0 mg/kg/injection, schedule: Q04DX003 (oral), vehicle: other",111 % of control
same,T/C,"dose: 2.4 mg/kg/injection, schedule: Q01DX009 (ip), vehicle: other",209 % of control
same,T/C,"dose: 2.5 mg/kg/injection, schedule: Q04DX002 (ip), vehicle: clinical formulation",153 % of control and 173 % of control
same,T/C,"dose: 2.5 mg/kg/injection, schedule: Q04DX003 (ip), vehicle: other",155 % of control
same,T/C,"dose: 2.59 mg/kg/injection, schedule: Q04DX003 (ip), vehicle: clinical formulation",167 % of control
same,T/C,"dose: 2.59 mg/kg/injection, schedule: Q04DX003 (ip), vehicle: saline",168 % of control
same,T/C,"dose: 2.59 mg/kg/injection, schedule: Q04DX003 (ip), vehicle: water",161 % of control and 163 % of control and 179 % of control
same,T/C,"dose: 2.6 mg/kg/injection, schedule: Q04DX002 (ip), vehicle: other",160 % of control
same,T/C,"dose: 3.0 mg/kg/injection, schedule: Q04DX003 (ip), vehicle: clinical formulation",160 % of control
same,T/C,"dose: 4.0 mg/kg/injection, schedule: Q01DX005 (ip), vehicle: other",183 % of control and 207 % of control
same,T/C,"dose: 4.0 mg/kg/injection, schedule: Q01DX005 (iv), vehicle: other",154 % of control
same,T/C,"dose: 4.0 mg/kg/injection, schedule: Q01DX005 (oral), vehicle: other",120 % of control
same,T/C,"dose: 4.0 mg/kg/injection, schedule: Q01DX009 (ip), vehicle: other",192 % of control and 223 % of control and 90 % of control
same,T/C,"dose: 4.0 mg/kg/injection, schedule: Q04DX003 (ip), vehicle: other",163 % of control
same,T/C,"dose: 4.0 mg/kg/injection, schedule: Q04DX003 (oral), vehicle: other",119 % of control
same,T/C,"dose: 4.3 mg/kg/injection, schedule: Q04DX002 (ip), vehicle: other",179 % of control
same,T/C,"dose: 4.32 mg/kg/injection, schedule: Q04DX003 (ip), vehicle: clinical formulation",173 % of control
same,T/C,"dose: 4.32 mg/kg/injection, schedule: Q04DX003 (ip), vehicle: saline",175 % of control
same,T/C,"dose: 4.32 mg/kg/injection, schedule: Q04DX003 (ip), vehicle: water",169 % of control and 176 % of control and 180 % of control
same,T/C,"dose: 5.0 mg/kg/injection, schedule: Q04DX002 (ip), vehicle: clinical formulation",172 % of control and 186 % of control
same,T/C,"dose: 5.0 mg/kg/injection, schedule: Q04DX003 (ip), vehicle: other",156 % of control and 161 % of control and 193 % of control
same,T/C,"dose: 6.0 mg/kg/injection, schedule: Q04DX003 (ip), vehicle: clinical formulation",203 % of control
same,T/C,"dose: 6.0 mg/kg/injection, schedule: Q04DX003 (ip), vehicle: saline with Tween-80",175 % of control
same,T/C,"dose: 6.25 mg/kg/injection, schedule: Q04DX002 (oral), vehicle: other",101 % of control and 106 % of control
same,T/C,"dose: 7.2 mg/kg/injection, schedule: Q04DX003 (ip), vehicle: clinical formulation",216 % of control
same,T/C,"dose: 7.2 mg/kg/injection, schedule: Q04DX003 (ip), vehicle: saline",214 % of control
same,T/C,"dose: 7.2 mg/kg/injection, schedule: Q04DX003 (ip), vehicle: water",197 % of control and 204 % of control and 219 % of control
same,T/C,"dose: 8.0 mg/kg/injection, schedule: Q01DX005 (ip), vehicle: other",193 % of control
same,T/C,"dose: 8.0 mg/kg/injection, schedule: Q04DX003 (ip), vehicle: other",158 % of control and 204 % of control
same,T/C,"dose: 8.0 mg/kg/injection, schedule: Q04DX003 (ip), vehicle: saline with Tween-80",182 % of control and 235 % of control
same,T/C,"dose: 8.0 mg/kg/injection, schedule: Q04DX003 (oral), vehicle: other",123 % of control
same,T/C,"dose: 10.0 mg/kg/injection, schedule: Q04DX002 (ip), vehicle: clinical formulation",216 % of control and 238 % of control
same,T/C,"dose: 10.0 mg/kg/injection, schedule: Q04DX003 (ip), vehicle: other",182 % of control and 204 % of control and 245 % of control
same,T/C,"dose: 10.8 mg/kg/injection, schedule: Q01DX001 (ip), vehicle: other",153 % of control
same,T/C,"dose: 12.0 mg/kg/injection, schedule: Q04DX003 (ip), vehicle: clinical formulation",207 % of control and 228 % of control
same,T/C,"dose: 12.0 mg/kg/injection, schedule: Q04DX003 (ip), vehicle: saline",261 % of control
same,T/C,"dose: 12.0 mg/kg/injection, schedule: Q04DX003 (ip), vehicle: water",230 % of control and 231 % of control
same,T/C,"dose: 12.5 mg/kg/injection, schedule: Q04DX002 (oral), vehicle: other",107 % of control and 117 % of control
same,T/C,"dose: 16.0 mg/kg/injection, schedule: Q04DX003 (ip), vehicle: other",193 % of control and 245 % of control
same,T/C,"dose: 18.0 mg/kg/injection, schedule: Q01DX001 (ip), vehicle: other",165 % of control
same,T/C,"dose: 18.0 mg/kg/injection, schedule: Q04DX003 (ip), vehicle: saline with Tween-80",191 % of control and 264 % of control
same,T/C,"dose: 20.0 mg/kg/injection, schedule: Q01DX001 (ip), vehicle: saline with Tween-80",117 % of control
same,T/C,"dose: 20.0 mg/kg/injection, schedule: Q04DX002 (ip), vehicle: clinical formulation",281 % of control
same,T/C,"dose: 22.5 mg/kg/injection, schedule: Q04DX003 (ip), vehicle: saline with Tween-80",198 % of control
same,T/C,"dose: 25.0 mg/kg/injection, schedule: Q04DX002 (oral), vehicle: other",120 % of control
same,T/C,"dose: 25.0 mg/kg/injection, schedule: Q04DX003 (ip), vehicle: saline with Tween-80",161 % of control
same,T/C,"dose: 30.0 mg/kg/injection, schedule: Q01DX001 (ip), vehicle: other",180 % of control
same,T/C,"dose: 30.0 mg/kg/injection, schedule: Q01DX001 (ip), vehicle: saline with Tween-80",120 % of control
same,T/C,"dose: 32.0 mg/kg/injection, schedule: Q04DX003 (oral), vehicle: other",172 % of control
same,T/C,"dose: 40.0 mg/kg/injection, schedule: Q01DX001 (ip), vehicle: saline with Tween-80",228 % of control
same,T/C,"dose: 40.0 mg/kg/injection, schedule: Q04DX003 (ip), vehicle: other",86 % of control
same,T/C,"dose: 45.0 mg/kg/injection, schedule: Q04DX003 (ip), vehicle: saline with Tween-80",187 % of control and 222 % of control and 274 % of control
same,T/C,"dose: 50.0 mg/kg/injection, schedule: Q01DX001 (ip), vehicle: saline with Tween-80",124 % of control
same,T/C,"dose: 50.0 mg/kg/injection, schedule: Q04DX002 (oral), vehicle: other",151 % of control and 168 % of control
same,T/C,"dose: 50.0 mg/kg/injection, schedule: Q04DX003 (oral), vehicle: other",91 % of control
same,T/C,"dose: 60.0 mg/kg/injection, schedule: Q01DX001 (ip), vehicle: saline with Tween-80",252 % of control
O=C1CCCCCC2=NC12 (centres undefined),T/C,"dose: 6.25 mg/kg/injection, schedule: Q01DX005 (ip), vehicle: Klucel (hydroxypropylcellulose) (HPC)",105 % of control and 90 % of control
same,T/C,"dose: 12.5 mg/kg/injection, schedule: Q01DX005 (ip), vehicle: Klucel (hydroxypropylcellulose) (HPC)",103 % of control and 109 % of control
same,T/C,"dose: 25.0 mg/kg/injection, schedule: Q01DX005 (ip), vehicle: Klucel (hydroxypropylcellulose) (HPC)",113 % of control and 118 % of control
same,T/C,[1],116 % of control
COc1cc([N+](=O)[O-])c(OC)cc1C(C)=O,T/C,[1],96 % of control
same,T/C,"dose: 100.0 mg/kg/injection, schedule: Q01DX005 (ip), vehicle: Klucel (hydroxypropylcellulose) (HPC)",93 % of control
same,T/C,"dose: 200.0 mg/kg/injection, schedule: Q01DX005 (ip), vehicle: Klucel (hydroxypropylcellulose) (HPC)",100 % of control
